Experiment [1] addresses T1, human recombinant histamine H1 receptor (Homo sapiens, UniProt P35367).
T1 construct: expressed in transfected cells; host or cells: CHO cells
Nature of the experiment: Histamine H1 radioligand binding ([3H]Pyrilamine). Conditions: compound at 1 μM; read-out: Histamine Binding (1 μM) H1, percent inhibition of specific binding. The procedure: To evaluate in radioligand binding assays the activity of compounds of the invention, human recombinant histamine H1 receptor expressed in Chinese hamster ovary (CHO) cells (De Backer, M. D. et al., Biochem. Biophys. Res. Comm. 197(3):1601, 1993) in a modified Tris-HCl buffer (50 mM Tris-HCl, pH 7.4, 2 mM MgCl2, 100 mM NaCl, 250 mM Sucrose) was used. Compounds of the invention were incubated with 1.2 nM [^3H]Pyrilamine for 180 min. at 25° C. Non-specific binding was estimated in the presence of 1 μM pyrilamine. Receptor proteins were filtered and washed, the filters were then counted to determine [^3H]Pyrilamine specifically bound. Compounds were screened at 1 μM or lower, using 1% DMSO as vehicle. Biochemical assay results are presented as the percent inhibition of specific binding in Table 6.

Experiment [2] addresses T2, human recombinant histamine H2 receptor (Homo sapiens, UniProt P25021).
T2 construct: expressed in transfected cells; host or cells: CHO-K1 cells
Nature of the experiment: Histamine H2 radioligand binding ([125I]Aminopotentidine). The note with it: compound at 1 μM; read-out: Histamine Binding (1 μM) H2, percent inhibition of specific binding. The procedure:
To evaluate in radioligand binding assays the activity of compounds of the invention, human recombinant histamine H2 receptor expressed in Chinese hamster ovary (CHO) K1 cells (Ruat, M., Proc. Natl. Acad. Sci. USA. 87(5):1658, 1990) in a 50 mM Phosphate buffer, pH 7.4 was used. Compounds of the invention were incubated with 0.1 nM [^125I]Aminopotentidine for 120 min. at 25° C. Non-specific binding was estimated in the presence of 3 μM Tiotidine. Receptor proteins were filtered and washed, the filters were then counted to determine [^125I]Aminopotentidine specifically bound. Compounds were screened at 1 μM or lower, using 1% DMSO as vehicle. Biochemical assay results are presented as the percent inhibition of specific binding in Table 6.

The target in experiment [3] is T3, human recombinant dopamine D2L receptor (Homo sapiens, UniProt P14416).
T3 construct: expressed in transfected cells; host or cells: CHO cells
T3 sequence (P14416 whole entry): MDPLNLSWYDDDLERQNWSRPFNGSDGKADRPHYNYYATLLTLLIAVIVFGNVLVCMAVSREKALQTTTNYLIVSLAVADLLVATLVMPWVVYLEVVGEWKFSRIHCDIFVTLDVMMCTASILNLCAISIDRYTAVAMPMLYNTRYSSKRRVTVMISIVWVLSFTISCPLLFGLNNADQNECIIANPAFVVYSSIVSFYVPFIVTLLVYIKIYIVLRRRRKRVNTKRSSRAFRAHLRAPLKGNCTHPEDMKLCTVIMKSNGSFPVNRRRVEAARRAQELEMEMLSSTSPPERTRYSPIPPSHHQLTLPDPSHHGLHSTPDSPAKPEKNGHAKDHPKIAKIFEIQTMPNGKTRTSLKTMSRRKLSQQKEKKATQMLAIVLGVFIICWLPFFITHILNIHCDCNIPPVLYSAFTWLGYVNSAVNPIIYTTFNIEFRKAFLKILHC
Nature of the experiment: Dopamine D2L radioligand binding ([3H]Spiperone). The note with it: compound at 1 μM; read-out: Dopamine (1 μM) D2L, percent inhibition of specific binding. The procedure:
To evaluate in radioligand binding assays the activity of compounds of the invention, human recombinant dopamine D2L receptor expressed in Chinese hamster ovary (CHO) cells (Grandy, D. K. et al. Proc. Natl. Acad. Sci. USA. 86:9762, 1989; Hayes, G. et al., Mol. Endocrinol. 6:920, 1992) in a modified Tris-HCl buffer (50 mM Tris-HCl, pH 7.4, 1.4 mM Ascorbic Acid, 0.001% BSA, 150 mM NaCl) was used. Compounds of the invention were incubated with 0.16 nM [^3H]Spiperone for 120 min. at 25° C. Non-specific binding was estimated in the presence of 10 μM Haloperidol. Receptor proteins were filtered and washed, the filters were then counted to determine [^3H]Spiperone specifically bound. Compounds were screened at 1 μM or lower, using 1% DMSO as vehicle. Biochemical assay results are presented as the percent inhibition of specific binding in Table 5.

Experiment [4] addresses T4, human recombinant serotonin (5-Hydroxytryptamine) 5-HT6 receptor (Homo sapiens, UniProt P50406).
T4 construct: expressed in transfected cells; host or cells: human HeLa cells
Description: Serotonin 5-HT6 radioligand binding ([3H]LSD). The note with it: compound at 1 μM; read-out: Serotonin (1 μM) 5-HT6, percent inhibition of specific binding. As to the method:
To evaluate in radioligand binding assays the activity of compounds of the invention, human recombinant serotonin (5-Hydroxytryptamine) 5-HT6 receptor expressed in human HeLa cells (Monsma, F. J. Jr. et al., Mol. Pharmacol. 43:320, 1993) in a modified Tris-HCl buffer (50 mM Tris-HCl, pH 7.4, 150 mM NaCl, 2 mM Ascorbic Acid, 0.001% BSA) was used. Compounds of the invention were incubated with 1.5 nM [3H]Lysergic acid diethylamide (LSD) for 120 min. at 37° C. Non-specific binding was estimated in the presence of 5 μM Serotonin (5-HT). Receptor proteins were filtered and washed, the filters were then counted to determine [3H]LSD specifically bound. Compounds were screened at 1 μM or lower, using 1% DMSO as vehicle. Biochemical assay results are presented as the percent inhibition of specific binding in Table 6.

In experiment [5] the target is T5, human recombinant serotonin (5-Hydroxytryptamine) 5-HT2C receptor (Homo sapiens, UniProt P28335).
T5 construct: expressed in transfected cells; host or cells: CHO-K1 cells
T5 sequence (P28335 33-458): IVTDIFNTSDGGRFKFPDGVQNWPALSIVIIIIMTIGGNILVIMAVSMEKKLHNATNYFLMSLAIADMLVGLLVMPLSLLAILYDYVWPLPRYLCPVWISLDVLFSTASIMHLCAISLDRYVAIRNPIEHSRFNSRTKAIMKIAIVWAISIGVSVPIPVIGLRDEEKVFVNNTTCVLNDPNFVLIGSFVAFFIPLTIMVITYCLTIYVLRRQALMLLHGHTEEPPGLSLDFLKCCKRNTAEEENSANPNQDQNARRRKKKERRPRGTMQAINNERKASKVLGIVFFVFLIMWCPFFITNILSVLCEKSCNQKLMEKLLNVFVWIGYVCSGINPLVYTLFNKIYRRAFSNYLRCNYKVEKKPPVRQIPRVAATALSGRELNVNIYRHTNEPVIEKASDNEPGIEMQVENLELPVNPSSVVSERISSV
Nature of the experiment: Serotonin 5-HT2C radioligand binding ([3H]Mesulergine). Conditions: compound at 1 μM; read-out: Serotonin (1 μM) 5-HT2C, percent inhibition of specific binding. The procedure: To evaluate in radioligand binding assays the activity of compounds of the invention, human recombinant serotonin (5-Hydroxytryptamine) 5-HT2C receptor expressed in Chinese hamster ovary (CHO-K1) cells (Wolf, W. A. and Schutz, J. S., J. Neurochem. 69:1449, 1997) in a modified Tris-HCl buffer (50 mM Tris-HCl, pH 7.4, 0.1% Ascorbic Acid, 10 μM Pargyline) was used. Compounds of the invention were incubated with 1 nM [^3H]Mesulergine for 60 min. at 25° C. Non-specific binding was estimated in the presence of 1 μM Mianserin. Receptor proteins were filtered and washed, the filters were then counted to determine [^3H]Mesulergine specifically bound. Compounds were screened at 1 μM or lower, using 1% DMSO as vehicle. Biochemical assay results are presented as the percent inhibition of specific binding in Table 6.

Experiment [6] deals with T6, human recombinant serotonin (5-Hydroxytryptamine) 5-HT2A receptor (Homo sapiens, UniProt P28223).
T6 construct: expressed in transfected cells; host or cells: CHO-K1 cells
T6 sequence (P28223 whole entry): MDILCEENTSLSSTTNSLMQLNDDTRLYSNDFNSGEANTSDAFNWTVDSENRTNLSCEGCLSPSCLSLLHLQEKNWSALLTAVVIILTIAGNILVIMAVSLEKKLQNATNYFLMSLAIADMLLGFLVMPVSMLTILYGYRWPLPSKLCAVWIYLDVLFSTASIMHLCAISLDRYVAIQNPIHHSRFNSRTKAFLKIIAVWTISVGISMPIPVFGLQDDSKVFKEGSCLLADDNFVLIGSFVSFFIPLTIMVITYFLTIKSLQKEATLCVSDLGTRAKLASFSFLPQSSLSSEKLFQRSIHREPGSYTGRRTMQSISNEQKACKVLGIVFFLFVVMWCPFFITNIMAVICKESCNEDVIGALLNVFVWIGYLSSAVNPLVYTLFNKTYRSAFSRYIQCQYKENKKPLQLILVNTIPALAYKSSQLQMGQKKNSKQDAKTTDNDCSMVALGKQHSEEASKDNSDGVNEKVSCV
Description: Serotonin 5-HT2A radioligand binding ([3H]Ketanserin). Conditions: compound at 1 μM; read-out: Serotonin (1 μM) 5-HT2A, percent inhibition of specific binding. The procedure:
To evaluate in radioligand binding assays the activity of compounds of the invention, human recombinant serotonin (5-Hydroxytryptamine) 5-HT2A receptor expressed in Chinese hamster ovary (CHO-K1) cells (Bonhaus, D. W. et al. Br. J. Pharmacol. 115:622, 1995; Saucier, C. and Albert, P. R., J. Neurochem. 68:1998, 1997) in a 50 mM Tris-HCl buffer, pH 7.4, was used. Compounds of the invention were incubated with 0.5 nM [^3H]Ketanserin for 60 min. at 25° C. Non-specific binding was estimated in the presence of 1 μM Mianserin. Receptor proteins were filtered and washed, the filters were then counted to determine [^3H]Ketanserin specifically bound. Compounds were screened at 1 μM or lower, using 1% DMSO as vehicle. Biochemical assay results are presented as the percent inhibition of specific binding in Table 6.

This is an account of results in patent US9481676B2, “Azepino[4,5-B]indoles and methods of use” (Medivation Technologies, Inc., priority 2008, dated 2016).

T1 sequence (P35367 whole entry): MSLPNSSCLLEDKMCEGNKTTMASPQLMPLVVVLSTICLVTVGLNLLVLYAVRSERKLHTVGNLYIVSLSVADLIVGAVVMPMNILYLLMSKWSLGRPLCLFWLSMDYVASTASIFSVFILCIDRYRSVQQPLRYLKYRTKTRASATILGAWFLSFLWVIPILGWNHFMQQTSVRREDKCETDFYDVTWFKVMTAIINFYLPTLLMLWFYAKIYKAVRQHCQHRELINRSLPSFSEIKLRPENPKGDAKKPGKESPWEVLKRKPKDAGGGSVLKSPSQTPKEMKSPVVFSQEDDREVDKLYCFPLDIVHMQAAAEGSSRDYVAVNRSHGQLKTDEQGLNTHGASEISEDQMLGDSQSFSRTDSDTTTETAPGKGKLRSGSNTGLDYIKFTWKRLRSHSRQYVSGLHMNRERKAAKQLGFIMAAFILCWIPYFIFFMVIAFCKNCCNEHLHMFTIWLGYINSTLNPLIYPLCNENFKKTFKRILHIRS
T2 sequence (P25021 whole entry): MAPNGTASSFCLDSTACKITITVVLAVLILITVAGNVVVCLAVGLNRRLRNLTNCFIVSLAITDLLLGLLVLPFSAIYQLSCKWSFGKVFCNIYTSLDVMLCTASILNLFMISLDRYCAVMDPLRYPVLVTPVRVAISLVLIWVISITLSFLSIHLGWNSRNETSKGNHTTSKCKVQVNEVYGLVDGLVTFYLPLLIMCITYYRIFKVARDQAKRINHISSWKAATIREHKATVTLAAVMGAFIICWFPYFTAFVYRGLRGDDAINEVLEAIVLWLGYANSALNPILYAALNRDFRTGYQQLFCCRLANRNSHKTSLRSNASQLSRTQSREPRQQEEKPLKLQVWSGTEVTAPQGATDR
T4 sequence (P50406 whole entry): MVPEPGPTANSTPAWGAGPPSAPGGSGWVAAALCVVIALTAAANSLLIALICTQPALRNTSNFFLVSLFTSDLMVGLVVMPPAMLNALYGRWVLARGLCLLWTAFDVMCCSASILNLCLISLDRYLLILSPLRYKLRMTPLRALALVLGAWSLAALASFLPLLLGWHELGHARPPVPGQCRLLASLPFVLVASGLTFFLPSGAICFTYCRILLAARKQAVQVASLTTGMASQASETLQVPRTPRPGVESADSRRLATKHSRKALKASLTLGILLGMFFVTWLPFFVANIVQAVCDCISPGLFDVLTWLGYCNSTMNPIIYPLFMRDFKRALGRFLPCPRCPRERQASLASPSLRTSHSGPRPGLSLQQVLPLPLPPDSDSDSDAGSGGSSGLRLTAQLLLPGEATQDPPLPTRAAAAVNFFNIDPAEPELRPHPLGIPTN

What is called inhibition is the change of the read-out against control, counted positive when it falls. For the compound `C/C(=C\n1c2c(c3cc(Cl)ccc31)CCN(C)CC2)c1ccccc1Cl` [Compound No. 245, (E)-9-chloro-6-(2-(2-chlorophenyl)prop-1-enyl)-3-methyl-1,2,3,4,5,6-hexahydroazepino[4,5-b]indole], the inhibition at 1 µM stood at 96% in experiment [1]; 88% in experiment [2]; 16% in experiment [3]; 97% in experiment [4]; 99% in experiment [5]; 99% in experiment [6].

On to `C/C(=C\n1c2c(c3cc(Cl)ccc31)CCN(C)CC2)c1ccncc1` [Compound No. 248, (E)-9-chloro-3-methyl-6-(2-(pyridin-4-yl)prop-1-enyl)-1,2,3,4,5,6-hexahydroazepino[4,5-b]indole], for which the inhibition at 1 µM came out at 88% in experiment [1]; 44% in experiment [2]; 81% in experiment [3]; 103% in experiment [4]; 101% in experiment [5]; 99% in experiment [6].

Take `C/C(=C\n1c2c(c3cc(C)ccc31)CCN(C)CC2)c1ccccc1F` [Compound No. 241, (E)-6-(2-(2-fluorophenyl)prop-1-enyl)-3,9-dimethyl-1,2,3,4,5,6-hexahydroazepino[4,5-b]indole]: the inhibition at 1 µM was 98% in experiment [1]; 93% in experiment [2]; 37% in experiment [3]; 100% in experiment [4]; 97% in experiment [5]; 100% in experiment [6].

`C/C(=C/n1c2c(c3cc(C)ccc31)CCN(C)CC2)c1cccc(F)c1` [Compound No. 251, (Z)-6-(2-(3-fluorophenyl)prop-1-enyl)-3,9-dimethyl-1,2,3,4,5,6-hexahydroazepino[4,5-b]indole]: the inhibition at 1 µM in experiment [1] turned out to be 96%; in experiment [2] it was 95%; in experiment [3], 35%; in experiment [4], 99%; in experiment [5], 99%; in experiment [6], 101%.

Consider `COc1ccc(/C(C)=C/n2c3c(c4cc(Cl)ccc42)CCN(C)CC3)cc1` [Compound No. 160, (E)-9-chloro-1,2,3,4,5,6-hexahydro-6-(2-(4-methoxyphenyl)prop-1-enyl)-3-methylazepino[4,5-b]indole], for which the inhibition at 1 µM in experiment [1] is 87%; in experiment [2], 91%; in experiment [3], 17%; in experiment [4], 99%; in experiment [5], 103%; in experiment [6] it was 94%.

Regarding `C/C(=C\n1c2c(c3cc(C)ccc31)CCN(C)CC2)c1ccc(F)c(F)c1` [Compound No. 177, (E)-6-(2-(3,4-difluorophenyl)prop-1-enyl)-1,2,3,4,5,6-hexahydro-3,9-dimethylazepino[4,5-b]indole], the inhibition at 1 µM in experiment [1] amounted to 93%; in experiment [2] it was 92%; in experiment [3], 25%; in experiment [4], 96%; in experiment [5], 99%; in experiment [6], 98%.

`C/C(=C\n1c2c(c3cc(Cl)ccc31)CCN(C)CC2)c1cccc(F)c1` [Compound No. 250, (E)-9-chloro-6-(2-(3-fluorophenyl)prop-1-enyl)-3-methyl-1,2,3,4,5,6-hexahydroazepino[4,5-b]indole]: the inhibition at 1 µM in experiment [1] is 93%; in experiment [2], 85%; in experiment [3] it was 15%; in experiment [4], 99%; in experiment [5], 99%; in experiment [6] it was 100%.

`C/C(=C\n1c2c(c3cc(C)ccc31)CCN(C)CC2)c1ccncc1` [Compound No. 253, (E)-3,9-dimethyl-6-(2-(pyridin-4-yl)prop-1-enyl)-1,2,3,4,5,6-hexahydroazepino[4,5-b]indole]: the inhibition at 1 µM worked out at 32% in experiment [1]; 31% in experiment [2]; 55% in experiment [3]; 103% in experiment [4]; 101% in experiment [5]; 102% in experiment [6].

For `C/C(=C\n1c2c(c3cc(C)ccc31)CCN(C)CC2)c1ccc(Cl)c(Cl)c1` [Compound No. 176, (E)-6-(2-(3,4-dichlorophenyl)prop-1-enyl)-1,2,3,4,5,6-hexahydro-3,9-dimethylazepino[4,5-b]indole], the inhibition at 1 µM was found to be 82% in experiment [1]; 95% in experiment [2]; 23% in experiment [3]; 74% in experiment [4]; 99% in experiment [5]; 99% in experiment [6].

Turning to `C/C(=C\n1c2c(c3cc(Cl)ccc31)CCN(C)CC2)c1ccc(F)c(F)c1` [Compound No. 155, (E)-9-chloro-6-(2-(3,4-difluorophenyl)prop-1-enyl)-1,2,3,4,5,6-hexahydro-3-methylazepino[4,5-b]indole], the inhibition at 1 µM in experiment [1] came out at 93%; in experiment [2], 92%; in experiment [3], 38%; in experiment [4], 101%; in experiment [5], 98%; in experiment [6], 99%.
